In ChEMBL document CHEMBL1152560, “Substituted 2-arylbenzothiazoles as kinase inhibitors: hit-to-lead optimization” (Bioorg Med Chem, 2009) one finds residual activity data, which are given here for three molecules.

The target in assay [1] is T1, Ephrin type-B receptor 3 (Homo sapiens) (UniProt P54753).
T1 sequence (whole entry): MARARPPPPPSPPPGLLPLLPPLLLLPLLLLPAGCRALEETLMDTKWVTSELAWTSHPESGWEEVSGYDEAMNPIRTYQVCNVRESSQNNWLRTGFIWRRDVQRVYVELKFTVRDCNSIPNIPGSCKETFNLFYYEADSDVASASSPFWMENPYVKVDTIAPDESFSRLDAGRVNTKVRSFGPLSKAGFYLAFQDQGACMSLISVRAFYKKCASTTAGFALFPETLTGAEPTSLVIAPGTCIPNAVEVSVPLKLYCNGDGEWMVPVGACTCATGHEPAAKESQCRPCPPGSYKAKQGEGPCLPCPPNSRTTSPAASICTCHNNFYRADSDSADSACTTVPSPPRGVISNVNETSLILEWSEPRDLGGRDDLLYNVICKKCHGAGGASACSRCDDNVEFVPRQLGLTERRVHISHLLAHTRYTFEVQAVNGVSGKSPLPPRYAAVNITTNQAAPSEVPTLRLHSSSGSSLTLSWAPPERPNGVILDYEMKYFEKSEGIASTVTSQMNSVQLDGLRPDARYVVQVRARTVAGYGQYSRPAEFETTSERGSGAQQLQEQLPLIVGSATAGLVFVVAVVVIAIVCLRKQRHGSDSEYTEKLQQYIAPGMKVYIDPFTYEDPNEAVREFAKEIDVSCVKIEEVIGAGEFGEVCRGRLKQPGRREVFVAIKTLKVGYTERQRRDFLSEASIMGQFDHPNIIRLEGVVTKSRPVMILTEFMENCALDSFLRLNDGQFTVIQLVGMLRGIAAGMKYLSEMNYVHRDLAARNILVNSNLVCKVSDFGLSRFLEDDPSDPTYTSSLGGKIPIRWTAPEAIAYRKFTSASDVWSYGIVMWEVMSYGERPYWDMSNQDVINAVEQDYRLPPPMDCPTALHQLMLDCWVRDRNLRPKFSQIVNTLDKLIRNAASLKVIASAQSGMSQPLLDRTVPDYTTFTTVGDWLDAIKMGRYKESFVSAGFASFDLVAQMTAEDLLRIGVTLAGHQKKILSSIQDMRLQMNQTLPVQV
Kind of assay: Residual activity of EPHB3 at 1 uM by microplate scintillation counting.

For assay [2], the target named is Tyrosine-protein kinase Fes/Fps (Homo sapiens) (UniProt P07332). Kind of assay: Residual activity of FES at 1 uM by microplate scintillation counting.
The target in assay [3] is Tyrosine-protein kinase FRK (Homo sapiens) (UniProt P42685). Kind of assay: Residual activity of FRK at 0.1 uM by microplate scintillation counting.
The target in assay [4] is Homeodomain-interacting protein kinase 1 (Homo sapiens) (UniProt Q86Z02). In words: Residual activity of HIPK1 at 0.1 uM by microplate scintillation counting.
The target of assay [5] is Mitogen-activated protein kinase 14 (Homo sapiens) (UniProt Q16539). Kind of assay: Residual activity of p38alpha at 1 uM by microplate scintillation counting.
A further assay addresses Angiopoietin-1 receptor (Homo sapiens, UniProt Q02763). Kind of assay: Residual activity of TIE2 at 1 uM by microplate scintillation counting.
Assay [6] concerns the target T2, Serine/threonine-protein kinase D3 (Homo sapiens) (UniProt O94806).
T2 sequence (whole entry): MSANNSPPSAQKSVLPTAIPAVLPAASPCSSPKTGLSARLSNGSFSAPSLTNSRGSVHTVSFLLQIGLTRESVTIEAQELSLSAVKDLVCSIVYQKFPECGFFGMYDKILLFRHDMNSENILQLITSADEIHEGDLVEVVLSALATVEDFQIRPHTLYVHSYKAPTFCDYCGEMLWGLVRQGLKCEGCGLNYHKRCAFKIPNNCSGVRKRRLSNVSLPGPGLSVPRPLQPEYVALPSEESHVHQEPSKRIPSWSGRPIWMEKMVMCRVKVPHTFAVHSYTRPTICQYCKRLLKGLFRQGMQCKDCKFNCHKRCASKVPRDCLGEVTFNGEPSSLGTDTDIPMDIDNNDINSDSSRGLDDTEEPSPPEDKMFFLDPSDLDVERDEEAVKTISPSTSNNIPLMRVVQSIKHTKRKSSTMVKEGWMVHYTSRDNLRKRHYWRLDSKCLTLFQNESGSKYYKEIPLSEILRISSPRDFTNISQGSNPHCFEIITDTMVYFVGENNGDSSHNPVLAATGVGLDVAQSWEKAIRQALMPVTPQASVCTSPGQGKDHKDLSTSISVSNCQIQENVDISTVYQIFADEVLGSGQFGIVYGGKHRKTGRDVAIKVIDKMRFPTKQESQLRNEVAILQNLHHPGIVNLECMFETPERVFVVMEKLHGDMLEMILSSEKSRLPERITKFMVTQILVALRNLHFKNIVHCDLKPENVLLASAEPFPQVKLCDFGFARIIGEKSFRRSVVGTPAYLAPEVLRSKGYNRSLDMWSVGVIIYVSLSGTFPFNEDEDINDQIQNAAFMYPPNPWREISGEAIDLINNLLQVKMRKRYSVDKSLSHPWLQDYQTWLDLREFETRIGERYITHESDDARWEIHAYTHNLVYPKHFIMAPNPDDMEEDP
Kind of assay: Residual activity of PKCnu at 10 uM by microplate scintillation counting.

Assay [7] has as its system Tyrosine-protein kinase ABL1 (Homo sapiens), P00519 [T315I]. In words: Residual activity of ABL1 T315I mutant at 0.1 uM by microplate scintillation counting.
In assay [8] the target is Serine/threonine-protein kinase MRCK beta (Homo sapiens) (UniProt Q9Y5S2). Kind of assay: Residual activity of CDC42BPB at 0.1 uM by microplate scintillation counting.
The target of assay [9] is Protein kinase C beta type (Homo sapiens) (UniProt P05771). Kind of assay: Residual activity of PKCbeta2 at 0.1 uM by microplate scintillation counting.
Assay [10] has as its target Non-receptor tyrosine-protein kinase TYK2 (Homo sapiens) (UniProt P29597). In words: Residual activity of TYK2 at 10 uM by microplate scintillation counting.

Tyrosine-protein kinase Fes/Fps (Homo sapiens), sequence (P07332 whole entry): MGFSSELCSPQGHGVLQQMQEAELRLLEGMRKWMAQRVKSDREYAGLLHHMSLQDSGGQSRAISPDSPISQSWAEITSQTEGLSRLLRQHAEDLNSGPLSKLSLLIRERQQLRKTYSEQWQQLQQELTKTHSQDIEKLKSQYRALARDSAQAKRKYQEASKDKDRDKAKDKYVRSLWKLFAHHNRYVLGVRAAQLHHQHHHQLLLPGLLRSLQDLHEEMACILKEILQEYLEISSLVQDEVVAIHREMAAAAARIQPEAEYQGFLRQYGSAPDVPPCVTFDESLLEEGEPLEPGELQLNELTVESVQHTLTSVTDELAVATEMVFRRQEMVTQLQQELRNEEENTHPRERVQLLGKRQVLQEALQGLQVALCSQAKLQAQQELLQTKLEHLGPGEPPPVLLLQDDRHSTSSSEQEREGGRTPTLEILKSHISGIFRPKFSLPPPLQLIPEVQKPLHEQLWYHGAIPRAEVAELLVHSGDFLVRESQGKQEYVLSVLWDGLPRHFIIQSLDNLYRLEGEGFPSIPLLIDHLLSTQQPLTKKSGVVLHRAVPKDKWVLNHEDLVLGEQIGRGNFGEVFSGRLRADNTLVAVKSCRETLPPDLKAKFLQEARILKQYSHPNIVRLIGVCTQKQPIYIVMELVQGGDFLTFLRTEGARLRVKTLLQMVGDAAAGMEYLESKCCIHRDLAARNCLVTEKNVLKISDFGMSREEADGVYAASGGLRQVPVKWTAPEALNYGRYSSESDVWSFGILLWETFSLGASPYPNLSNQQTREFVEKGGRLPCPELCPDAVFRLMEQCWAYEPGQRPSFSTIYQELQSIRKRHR
Tyrosine-protein kinase FRK (Homo sapiens), sequence (P42685 whole entry): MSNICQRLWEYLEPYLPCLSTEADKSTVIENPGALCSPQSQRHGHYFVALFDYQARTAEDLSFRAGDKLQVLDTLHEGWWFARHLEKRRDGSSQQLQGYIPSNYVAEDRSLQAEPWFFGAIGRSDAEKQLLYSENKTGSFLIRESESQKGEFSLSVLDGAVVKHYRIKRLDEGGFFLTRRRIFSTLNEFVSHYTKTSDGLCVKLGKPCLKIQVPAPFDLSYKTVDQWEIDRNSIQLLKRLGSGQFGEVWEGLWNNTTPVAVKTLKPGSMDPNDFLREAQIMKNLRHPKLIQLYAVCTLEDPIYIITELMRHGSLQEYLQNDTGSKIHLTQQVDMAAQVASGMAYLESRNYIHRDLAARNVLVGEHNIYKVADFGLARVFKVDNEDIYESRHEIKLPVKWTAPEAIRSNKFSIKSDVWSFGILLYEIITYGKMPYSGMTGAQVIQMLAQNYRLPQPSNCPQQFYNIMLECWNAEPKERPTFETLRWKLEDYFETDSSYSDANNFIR
Angiopoietin-1 receptor, sequence (Q02763 whole entry): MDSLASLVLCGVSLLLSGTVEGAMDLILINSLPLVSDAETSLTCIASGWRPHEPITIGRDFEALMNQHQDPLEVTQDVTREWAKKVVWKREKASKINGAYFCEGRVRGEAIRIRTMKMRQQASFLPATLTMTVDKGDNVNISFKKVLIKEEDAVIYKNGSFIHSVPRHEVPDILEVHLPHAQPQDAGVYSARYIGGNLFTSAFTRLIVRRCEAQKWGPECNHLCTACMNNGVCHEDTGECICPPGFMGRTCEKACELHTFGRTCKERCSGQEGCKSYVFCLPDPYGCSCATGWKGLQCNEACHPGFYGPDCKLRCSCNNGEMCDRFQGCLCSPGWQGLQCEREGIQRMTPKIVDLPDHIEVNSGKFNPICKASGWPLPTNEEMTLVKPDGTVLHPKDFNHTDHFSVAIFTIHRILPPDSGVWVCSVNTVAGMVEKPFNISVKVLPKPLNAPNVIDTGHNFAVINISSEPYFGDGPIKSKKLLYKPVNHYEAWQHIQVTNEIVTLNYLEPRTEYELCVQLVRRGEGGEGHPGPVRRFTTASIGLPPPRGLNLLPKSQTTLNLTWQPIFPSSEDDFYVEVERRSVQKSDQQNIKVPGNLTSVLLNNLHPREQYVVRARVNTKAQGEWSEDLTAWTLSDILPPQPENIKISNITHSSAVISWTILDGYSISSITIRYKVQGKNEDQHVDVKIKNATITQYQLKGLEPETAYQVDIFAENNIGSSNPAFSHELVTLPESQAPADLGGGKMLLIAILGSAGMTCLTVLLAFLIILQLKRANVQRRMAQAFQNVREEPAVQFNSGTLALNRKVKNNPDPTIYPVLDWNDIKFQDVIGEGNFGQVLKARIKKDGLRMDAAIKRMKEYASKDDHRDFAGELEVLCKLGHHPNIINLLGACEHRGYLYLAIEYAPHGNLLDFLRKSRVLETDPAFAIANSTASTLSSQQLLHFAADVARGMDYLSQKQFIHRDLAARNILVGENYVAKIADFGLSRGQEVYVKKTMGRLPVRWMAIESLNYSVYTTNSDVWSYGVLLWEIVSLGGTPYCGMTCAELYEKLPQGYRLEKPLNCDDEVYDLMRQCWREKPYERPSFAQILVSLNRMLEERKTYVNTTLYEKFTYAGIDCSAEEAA
Non-receptor tyrosine-protein kinase TYK2 (Homo sapiens), sequence (P29597 whole entry): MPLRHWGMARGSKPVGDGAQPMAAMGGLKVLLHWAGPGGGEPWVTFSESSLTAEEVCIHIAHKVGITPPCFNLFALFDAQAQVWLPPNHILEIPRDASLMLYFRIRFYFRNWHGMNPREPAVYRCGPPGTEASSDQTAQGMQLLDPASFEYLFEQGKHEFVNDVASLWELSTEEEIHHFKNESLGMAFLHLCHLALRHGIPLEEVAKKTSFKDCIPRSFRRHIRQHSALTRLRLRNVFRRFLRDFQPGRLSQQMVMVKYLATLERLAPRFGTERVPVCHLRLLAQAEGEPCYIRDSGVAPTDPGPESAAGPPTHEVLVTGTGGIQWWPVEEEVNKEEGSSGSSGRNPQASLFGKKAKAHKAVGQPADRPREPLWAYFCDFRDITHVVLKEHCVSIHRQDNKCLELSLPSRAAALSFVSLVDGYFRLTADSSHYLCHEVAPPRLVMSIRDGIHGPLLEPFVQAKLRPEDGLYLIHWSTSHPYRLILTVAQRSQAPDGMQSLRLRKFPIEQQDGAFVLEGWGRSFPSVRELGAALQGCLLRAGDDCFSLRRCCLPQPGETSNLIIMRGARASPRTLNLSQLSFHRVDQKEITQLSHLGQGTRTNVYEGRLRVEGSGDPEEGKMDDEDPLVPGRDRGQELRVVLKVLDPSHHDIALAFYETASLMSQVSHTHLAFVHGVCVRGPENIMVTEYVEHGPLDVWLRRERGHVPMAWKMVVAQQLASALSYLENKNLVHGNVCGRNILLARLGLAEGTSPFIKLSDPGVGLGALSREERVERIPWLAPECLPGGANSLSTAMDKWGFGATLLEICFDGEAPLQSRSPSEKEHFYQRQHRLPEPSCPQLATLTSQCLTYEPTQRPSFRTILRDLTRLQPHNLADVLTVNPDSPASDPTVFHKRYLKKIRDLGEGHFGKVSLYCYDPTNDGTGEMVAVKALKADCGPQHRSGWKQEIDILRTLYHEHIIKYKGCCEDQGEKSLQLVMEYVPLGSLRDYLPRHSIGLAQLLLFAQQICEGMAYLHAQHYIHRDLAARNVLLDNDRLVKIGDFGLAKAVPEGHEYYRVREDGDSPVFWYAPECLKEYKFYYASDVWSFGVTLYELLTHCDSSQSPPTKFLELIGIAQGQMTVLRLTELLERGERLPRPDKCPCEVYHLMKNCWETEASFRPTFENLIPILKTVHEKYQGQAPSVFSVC
Mitogen-activated protein kinase 14 (Homo sapiens), sequence (Q16539 whole entry): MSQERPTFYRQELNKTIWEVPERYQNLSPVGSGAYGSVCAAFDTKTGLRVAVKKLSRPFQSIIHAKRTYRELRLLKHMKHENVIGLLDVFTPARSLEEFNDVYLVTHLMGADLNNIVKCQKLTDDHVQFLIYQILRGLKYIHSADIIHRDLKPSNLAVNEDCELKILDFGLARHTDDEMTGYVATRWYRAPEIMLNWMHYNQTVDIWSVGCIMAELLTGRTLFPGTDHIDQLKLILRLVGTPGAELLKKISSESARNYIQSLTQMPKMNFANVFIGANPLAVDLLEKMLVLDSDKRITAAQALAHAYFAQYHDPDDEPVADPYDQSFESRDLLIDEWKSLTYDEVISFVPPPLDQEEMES
Protein kinase C beta type (Homo sapiens), sequence (P05771 2-671 limits assumed): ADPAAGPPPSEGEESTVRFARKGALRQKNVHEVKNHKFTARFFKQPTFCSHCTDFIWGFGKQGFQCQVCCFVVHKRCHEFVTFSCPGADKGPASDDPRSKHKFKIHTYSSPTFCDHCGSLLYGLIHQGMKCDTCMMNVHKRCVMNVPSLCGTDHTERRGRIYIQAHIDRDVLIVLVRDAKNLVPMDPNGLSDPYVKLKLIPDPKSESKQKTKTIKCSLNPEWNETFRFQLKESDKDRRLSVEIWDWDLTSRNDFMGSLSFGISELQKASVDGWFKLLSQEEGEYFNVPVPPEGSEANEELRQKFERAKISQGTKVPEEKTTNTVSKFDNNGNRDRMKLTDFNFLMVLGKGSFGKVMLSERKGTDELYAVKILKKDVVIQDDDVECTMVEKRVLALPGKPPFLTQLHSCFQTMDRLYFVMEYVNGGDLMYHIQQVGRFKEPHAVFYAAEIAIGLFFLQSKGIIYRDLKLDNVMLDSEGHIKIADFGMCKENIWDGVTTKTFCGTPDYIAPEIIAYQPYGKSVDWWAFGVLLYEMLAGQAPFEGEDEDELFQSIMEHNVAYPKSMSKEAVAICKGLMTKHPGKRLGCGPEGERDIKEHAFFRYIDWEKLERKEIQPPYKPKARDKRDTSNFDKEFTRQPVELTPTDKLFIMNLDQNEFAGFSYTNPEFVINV

Regarding `COc1cc2c(Oc3ccc(-c4nc5ccccc5s4)cc3F)ncnc2cc1OCCCN1CCN(C)CC1`, the residual activity came out at 106% in assay [1]; 112% in assay [2]; 99% in [3]; 85% in assay [4]; 148% in assay [5]; 16% on Angiopoietin-1 receptor. Besides, the residual activity in [6] came out at 50%; in assay [7], 100%; in assay [8] it was 83%; in assay [9], 87%; in [10] it was 55%.

Turning to `COc1cc2c(Oc3ccc(-c4nc5ccccc5s4)cc3)ncnc2cc1OCCCN1CCN(C)CC1`, the residual activity in assay [1] is 108%; in assay [2] it was 105%; in assay [3], 100%; in [4], 99%; in assay [5], 145%; at Angiopoietin-1 receptor it was 22%. The residual activity stood at 52% in [6]; 96% in [7]; 120% in assay [8]; 101% in assay [9]; 72% in [10].

Consider `COc1cc2c(Oc3ccc(-c4nc5ccccc5s4)cc3)ncnc2cc1OCCCN1CCCC1`, for which the residual activity came to 105% in assay [1]; 123% in assay [2]; 100% in [3]; 83% in assay [4]; 143% in [5]; 23% at Angiopoietin-1 receptor. Besides, the residual activity in [6] turned out to be 82%; in [7], 98%; in [8] it was 87%; in [9] it was 99%; in assay [10], 72%.
